Experimental findings from patent US5504191A, “Human cancer inhibitory pentapeptide methyl esters” (priority 1994, dated 1996) are described below.

One may read the TGI as the concentration giving total growth inhibition.

For one assay, the system named is OVCAR-3. Briefly: Human cancer cell line growth inhibition, Ovarian OVCAR-3. Particulars: Ovarian OVCAR-3, 48 hrs. The class given is cell-based. An excerpt:
(§1) Current research in the control of cancer in the United States is coordinated by the National Cancer Institute (NCI). To determine whether a substance has anti-cancer properties, the NCI has established a systematic protocol. […] The protocol, and the established statistical means for analyzing the results obtained by the standardized testing are fully described in the literature. See: Boyd, Dr. Michael R., Principles & Practice of Oncology, PPO Updates, Volume 3, Number 10, October 1989, for an in depth description of the testing protocol; and Paull K. D., "Display and Analysis of Patterns of Differential Activity of Drugs Against Human Tumor Cell Lines; Development of Mean Graph and COMPARE Algorithm" Journal of the National Cancer Institute Reports, Vol. 81, No. 14, Page 1088, Jul. 14, 1989 for a description of the methods of statistical analysis employed to evaluate the test results. Both of these references are incorporated herein by this reference thereto.
(§2) ED50 (P388) and GI50 (HTCL) identify the drug dose which reduces the percent tumor/cell growth to 50%. There is no mathematical difference between ED50 and GI50, both of which are calculated using the same formula. The only difference is historical usage.
(§3) TGI, means "Total Growth Inhibition" and identifies the drug dose needed to yield zero percent growth, i.e. there are just as many cells at the end of the experiment as were present at the beginning. Whether just as many cells were killed as were produced (steady state), or no growth occurred (total inhibition) cannot be distinguished.
(§4) LC50, means "Lethal Concentration 50%", and identifies the drug concentration which reduces to one-half of the cells originally present at the beginning of the experiment.
(§5) Each drug is tested at five (5) doses: 100 - 10 - 1 - 0.1 - 0.01 - μg/ml. Percent Growths are calculated for each dose. The two (or three) doses with growth values above, below, (or near to) 50% growth are used to calculate the ED50 /GI50 values using a linear regression computation. If no dose yields a growth value under 50%, the results are expressed as: ED50 >(highest dose). If no dose yields growth higher than 50% growth, then ED50 <(lowest dose). Similar calculations are performed for the TGI at 0% growth, and at -50% growth for the LC50.
(§6) At the start of each experiment, cells from the in vitro cell cultures are inoculated into the appropriate tubes or microtiter plates. One set of control tubes/plates is immediately counted to determine the number of cells at the start of the experiment. This is the "baseline count" or "Tzero reading". At the end of the experiment (48 hrs later), a second set of control tubes/plates is analyzed to determine the "Control Growth" value. The growth (or death) of cells relative to the initial quantity of cells is used to define the "Percent of Growth."

The next assay concerns SF-295. Briefly: Human cancer cell line growth inhibition, CNS SF-295. The class given is cell-based. Particulars: CNS SF-295, 48 hrs.
Text: as §1, §2, §3, §4, §5, §6

A further assay has as its system A498. Briefly: Human cancer cell line growth inhibition, Renal A498. In kind it is cell-based. Particulars: Renal A498, 48 hrs.
Text: as §1, §2, §3, §4, §5, §6

In a further assay the test system is NCI-H460. Briefly: Human cancer cell line growth inhibition, Lung-NSC NCI-H460. The class given is cell-based. Particulars: Lung-NSC NCI-H460, 48 hrs.
Text: as §1, §2, §3, §4, §5, §6

In another assay the test system is KM20L2. Description: Human cancer cell line growth inhibition, Colon KM20L2. The class given is cell-based. Particulars: Colon KM20L2, 48 hrs.
Text: as §1, §2, §3, §4, §5, §6

The next assay concerns SK-MEL-5. Description: Human cancer cell line growth inhibition, Melanoma SK-MEL-5. Particulars: Melanoma SK-MEL-5, 48 hrs. In kind it is cell-based.
Text: as §1, §2, §3, §4, §5, §6

The next assay relates to PS-388 Mouse Leukemia. Description: PS-388 mouse leukemia cell growth inhibition (ED50). Particulars: Mouse Leukemia PS-388. The class given is cell-based. As for the experimental part:
as §2, §5, §6

The test system of assay [1] is LOX Human Melanoma Xenograph. Description: Dolastatin 10 in vivo, LOX human melanoma xenograph. Particulars: nude mouse. From the text:
(§7) The synthesis of potentially useful peptides presents one of the most essential and promising approaches to new types of anticancer and immunosuppressant drugs. The Dolastatins, an unprecedented series of linear and cyclic antineoplastic and/or cytostatic peptides isolated from Indian Ocean sea hare Dolabella auricularia represent excellent leads for synthetic modification. The very productive sea hare Dolabella auricularia has produced a number of structurally distinct peptides with excellent antineoplastic activity. Presently Dolastatin 10, a linear pentapeptide, represents the most important member and is a potentially useful antineoplastic agent. […] Recently the total synthesis and absolute configuration of this structurally unique and biologically active peptide was discovered.

The next assay has as its system Human Mammary Xenograph. Description: Dolastatin 10 in vivo, human mammary xenograph. Particulars: nude mouse, 26 μg/kg.
Text: as §7

The test system of assay [2] is OVCAR-3 Human Ovary Xenograph. Description: Dolastatin 10 in vivo, OVCAR-3 human ovary xenograph. Particulars: OVCAR-3 xenograph, nude mouse, 40 μg/kg.
Text: as §7

With Dov--Val--Dil--Dap--His--OMe [10b], the GI-50 in the assay on OVCAR-3 was 0.00071 µg/mL; with SF-295 it was > 0.01 µg/mL; in the assay on A498 it was > 0.01 µg/mL; in the assay with NCI-H460, > 0.01 µg/mL; in the assay with KM20L2, 0.00099 µg/mL; in the assay with SK-MEL-5, 0.0008 µg/mL. For the same substance, the LC-50 in the assay with OVCAR-3, with SF-295, with A498, with NCI-H460, in the assay on KM20L2 and with SK-MEL-5 was > 0.01 µg/mL each time. Moreover, the TGI with OVCAR-3, in the assay on SF-295, in the assay with A498, in the assay with NCI-H460, in the assay with KM20L2 and in the assay on SK-MEL-5 was > 0.01 µg/mL throughout. Further, the ED-50 in the assay on PS-388 Mouse Leukemia was > 0.01 µg/mL.

Turning to “Dov--Val--Dil--Dap--N^ε --Z--Lys--OMe [10a]”, the GI-50 with OVCAR-3 is 0.0069 µg/mL; with SF-295, > 0.01 µg/mL; in the assay with A498, > 0.01 µg/mL; in the assay on NCI-H460, > 0.01 µg/mL; in the assay on KM20L2 it was > 0.01 µg/mL; in the assay with SK-MEL-5 it was 0.003 µg/mL. Moreover, the LC-50 in the assay on OVCAR-3, in the assay on SF-295, in the assay with A498, in the assay on NCI-H460, in the assay on KM20L2 and in the assay with SK-MEL-5 was > 0.01 µg/mL in each case. Also, the TGI in the assay on OVCAR-3, in the assay with SF-295, with A498, in the assay on NCI-H460, in the assay with KM20L2 and in the assay with SK-MEL-5 was > 0.01 µg/mL each time. Besides, the ED-50 in the assay on PS-388 Mouse Leukemia was > 0.01 µg/mL.

As for Dolastatin 10, the T/C in assay [1] (3.25 μg/kg) was 170; in [1] (52 μg/kg), “toxic”; with Human Mammary Xenograph, “Toxic”; in [2], 300. Besides, the cures in assay [1] (3.25 μg/kg) came out at 17%; in assay [1] (6.5 μg/kg), 33%; in [1] (13 μg/kg), 50%; in assay [1] (26 μg/kg) it was 67%.

On to “N^α,N^ε --di--Z--Lys--Val--Dil--Dap--His--OMe [11a]”, for which the GI-50 in the assay on OVCAR-3 was 0.12 µg/mL; in the assay on SF-295, 0.67 µg/mL; with A498, > 1 µg/mL; in the assay on NCI-H460, 0.27 µg/mL; in the assay on KM20L2, 0.29 µg/mL; with SK-MEL-5 it was 0.08 µg/mL. Also, the LC-50 in the assay with OVCAR-3, in the assay with SF-295, in the assay with A498, in the assay with NCI-H460, in the assay on KM20L2 and in the assay on SK-MEL-5 was > 1 µg/mL each time. Moreover, the TGI in the assay with OVCAR-3 was 0.67 µg/mL; with SF-295, > 1 µg/mL; with A498, > 1 µg/mL; with NCI-H460, > 1 µg/mL; in the assay with KM20L2 it was > 1 µg/mL; with SK-MEL-5 it was > 1 µg/mL. In addition, the ED-50 in the assay with PS-388 Mouse Leukemia was > 1 µg/mL.

On to “N^γ,N^γ,N^α --tri--Z--Arg--Val--Dil--Dap--Met--OMe [11c]”, for which the GI-50 worked out at 0.074 µg/mL with OVCAR-3; 0.13 µg/mL with SF-295; 0.6 µg/mL with A498; 0.25 µg/mL with NCI-H460; 0.28 µg/mL with KM20L2; 0.38 µg/mL with SK-MEL-5. The LC-50 in the assay with OVCAR-3, in the assay with SF-295, in the assay with A498, in the assay with NCI-H460, in the assay on KM20L2 and in the assay on SK-MEL-5 was > 1 µg/mL each time. Besides, the TGI in the assay with OVCAR-3 is 0.74 µg/mL; in the assay on SF-295, > 1 µg/mL; in the assay on A498, > 1 µg/mL; with NCI-H460, 0.62 µg/mL; in the assay on KM20L2, > 1 µg/mL; in the assay with SK-MEL-5 it was > 1 µg/mL. This substance also gave an ED-50 in the assay with PS-388 Mouse Leukemia of 0.329 µg/mL.

As for “N^γ,N^γ,N^α --tri--Z--Arg--Val--Dil--Dap--N^ε --Z--Lys--OMe [11b]”, the GI-50 with OVCAR-3, in the assay on SF-295, with A498, in the assay on NCI-H460, with KM20L2 and in the assay on SK-MEL-5 was > 1 µg/mL in each case. For the same substance, the LC-50 in the assay with OVCAR-3, with SF-295, in the assay with A498, in the assay on NCI-H460, with KM20L2 and with SK-MEL-5 was > 1 µg/mL throughout. For the same substance, the concentration for total growth inhibition (TGI) in the assay with OVCAR-3, with SF-295, in the assay on A498, with NCI-H460, in the assay on KM20L2 and in the assay on SK-MEL-5 was > 1 µg/mL in each case. Moreover, in the assay with PS-388 Mouse Leukemia, the ED-50 turned out to be 0.513 µg/mL.
